The results in this text go back to ChEMBL document CHEMBL1150469, “The conserved acid binding domain model of inhibitors of protein phosphatases 1 and 2A: Molecular modelling aspects” (Bioorg Med Chem Lett, 1993).

The species entered for experiment [1] is Mus musculus. The experiment in a line: Tested for inhibition of specific [3H]- okadaic acid binding to the cytosolic fraction of mouse skin. The class given is functional.
Experiment [2] is filed under the species Mus musculus. The experiment can be described thus: Tested for inhibition of specific [3H]- okadaic acid binding to the cytosolic fraction of mouse liver. The class given is functional.
Experiment [3] is filed under the species Mus musculus. The experiment in a line: Tested for inhibition of specific [3H]- okadaic acid binding to the cytosolic fraction of mouse skin. The class given is functional.
The species named for experiment [4] is Mus musculus. The experiment in a line: Tested for intra peritoneal dose at which compound dose not show toxicity in mouse. In kind it is functional, organism-based.

Consider `C=C1[C@@H](O)[C@@H]2O[C@]3(CC[C@H](/C=C/[C@@H](C)[C@@H]4CC(C)=C[C@@]5(O[C@H](C[C@@](C)(O)C(=O)O)CC[C@H]5O)O4)O3)CC[C@H]2O[C@@H]1[C@@H](O)C[C@H](C)[C@H]1O[C@@]2(CCCCO2)CC[C@H]1C` [OKADAIC ACID], for which the ED50 in experiment [1] is listed as 2.8 nM; in experiment [2], 3.2 nM.

For `C=C1C(=O)N[C@H](C)C(=O)N[C@@H](CC(C)C)C(=O)N[C@@H](C(=O)O)[C@H](C)C(=O)N[C@@H](CCCNC(=N)N)C(=O)N[C@@H](/C=C/C(C)=C/[C@H](C)[C@H](Cc2ccccc2)OC)[C@H](C)C(=O)N[C@@H](C(=O)O)CCC(=O)N1C` (stereo in doubt; form 1), the ED50 in experiment [3] was determined as 68 nM. Still for that read-out and setting: in the case of `COC[C@@H]([C@H](O)[C@H](O)C(=O)NCC[C@H](C)c1nc(/C=C/C[C@@H]2O[C@]3(C[C@@H](O)[C@@H]2C)O[C@H]([C@H](C[C@H](O)[C@H](C)[C@H](O)[C@H](C)/C=C(C)/C(C)=C/C=C/C(C)=C\C#N)OC)[C@H](OP(=O)(O)O)C3(C)C)co1)N(C)C` [CALYCULIN A] it was 2.8 nM. In experiment [4], `C=C1C(=O)N[C@H](C)C(=O)N[C@@H](CC(C)C)C(=O)N[C@@H](C(=O)O)[C@H](C)C(=O)N[C@@H](CCCNC(=N)N)C(=O)N[C@@H](/C=C/C(C)=C/[C@H](C)[C@H](Cc2ccccc2)OC)[C@H](C)C(=O)N[C@@H](C(=O)O)CCC(=O)N1C` (stereo in doubt; form 2) had a DOSE of 1 mg/kg. The ED50 in experiment [3] came out at 8 nM; in experiment [2], 1.3 nM.
